Legend:
HT1080 cells = assay: Cell viability CCK-8 assay; assay type: cell-based, human; settings: Homo sapiens, HT-1080, CCK-8, 48 h, read-out: IC50 (cytotoxicity)
Method: To determine whether GPX4 degradation following treatment with HSP70‐PROTACs triggers cancer cell ferroptosis, we initially assessed the viability of HT1080 cells using the CCK‐8 assay after treatment with various concentrations of the tested compounds for 48 h. GPX4 inhibitor ML162, HSP70 inhibitor apoptozole, and two GPX4 non‐degradable HSP70‐PROTAC molecules, GDAz‐Neg1 and GDAz‐Neg2, were selected as controls. […] This remarkable activity might partly be ascribed to the high cell permeability conferred by the piperazine ring. […] We speculated that the potent anti‐proliferative activity of GDAz‐Neg2 may be attributed to the GPX4 inhibition.
The compounds under investigation were initially dissolved in dimethyl sulfoxide (DMSO) to generate stock solutions with a concentration of 10 mM. HT1080 cells or other tested cells were seeded in 96‐well plates at a density of 3000–5000 cells well^−1 and cultured at 37 °C. Following a 24‐h incubation period, the tested compounds were added to the wells at various concentrations (the DMSO stock solutions of all the tested compounds were diluted with culture medium to obtain the designated concentration containing a final concentration of DMSO less than 0.5% (v/v)). The cells were then cultured for an additional 48 or 72 h. Cell Counting Kit 8 (CCK‐8) assay was conducted to examine the effects of the tested compounds on cell viability, and the absorbance was measured at a wavelength of 450 nm. The IC50 values were determined utilizing GraphPad Prism software through nonlinear regression analysis. All experiments were independently repeated at least three times.

GPX4 = molecular target: T1, GPX4 (Homo sapiens, UniProt P36969); assay: GPX4 degradation by western blot in HT1080 cells; assay type: cell-based; set-up: determine the changes in the endogenous levels of GPX4 by western blot assay; endogenous in cells; host or cells: HT1080 fibrosarcoma cells, including siRNA-knockdown derivatives
T1 sequence (P36969 1-170 isoform P36969-2): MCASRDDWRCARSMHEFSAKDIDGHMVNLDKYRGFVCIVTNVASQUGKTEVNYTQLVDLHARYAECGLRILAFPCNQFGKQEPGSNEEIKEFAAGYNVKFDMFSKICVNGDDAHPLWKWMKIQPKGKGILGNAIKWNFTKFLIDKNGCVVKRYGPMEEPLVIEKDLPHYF
Method: To evaluate the GPX4 degradation efficiency of the synthesized HSP70‐PROTACs GDAz‐1–14, we first selected ferroptosis‐sensitive HT1080 fibrosarcoma cells (highly‐expressing GPX4) treated with different concentrations (0.1, 0.3, 1, and 3 µM) of these chimeras to determine the changes in the endogenous levels of GPX4 by western blot assay after 24 h treatment. […] This finding underscores the crucial role of the linker in HSP70‐PROTAC‐mediated protein degradation. […] In the case of alkyl chain derivatives (GDAz‐6–10), elongating the length of the linker generally led to a decreased GPX4 degrading activity. […] Thus, GDAz‐3 was selected for further evaluation.
Cells were seeded at a density of 4 × 10^5 cells well^−1 in 6‐well plates and allowed to incubate overnight. Cells were incubated with the indicated treatments. Thereafter, the cells were collected and lysed with RIPA buffer containing serine protease and phosphatase inhibitors for 30 min on ice. Proteins were quantified by using a BCA protein assay kit (Beyotime). Subsequently, SDS‐PAGE sample loading buffer was added, and the mixture was heated in a 100 °C metal bath for 10 min to denature the proteins. Protein samples from each group were separated by SDS‐PAGE gel and transferred to a PVDF membrane. After blocking with 5% skim milk for 1 h at room temperature, primary antibodies (GPX4: abcam (#ab125066, 1:1000); Hsp70: abcam (#ab2787, 1:1000); CHIP: HUABIO (#ST7108, 1:1000); UpingBio Technology Co., Ltd. (BRD4, #YP‐Ab‐18034, 1:1000; BAG‐1, #YP‐Ab‐00575, 1:1000); GAPDH: Proteintech (#60004‐1‐Ig, 1:50 000)) were used and incubated at 4 °C overnight on a rotary shaker. After washing the membranes with TBST buffer five times, the membranes were incubated with a second antibody (Cell Signaling Technology, #7074S, 1:1000 and #7076S, 1:1000) at room temperature for 2 h. Ultimately, the membrane was washed five times, and the antibody‐protein complexes were visualized using an ECL luminescence reagent (Biosharp, Shanghai, China). The relative intensities of the bands were analyzed by ImageJ and normalized to a loading control.

With `COc1ccc(-c2nc(-c3cc(C(F)(F)F)cc(C(F)(F)F)c3)n(Cc3ccc(C(=O)NCCOCCn4cc(COc5ccc(N(C(=O)CCl)C(C(=O)NCCc6ccccc6)c6cccs6)cc5Cl)nn4)cc3)c2-c2ccc(OC)cc2)cc1` (stereo not shown) [GDAz-1, 4-((2-(3,5-bis(trifluoromethyl)phenyl)-4,5-bis(4-methoxyphenyl)-1H-imidazol-1-yl)methyl)-N-(2-(2-(4-((2-chloro-4-(2-chloro-N-(2-oxo-2-(phenethylamino)-1-(thiophen-2-yl)ethyl)acetamido)phenoxy)methyl)-1H-1,2,3-triazol-1-yl)ethoxy)ethyl)benzamide] the IC50 (HT1080 cells) was 21700 ± 5300 nM.
With `COc1ccc(-c2nc(-c3cc(C(F)(F)F)cc(C(F)(F)F)c3)n(Cc3ccc(C(=O)NCCOCCOCCn4cc(COc5ccc(N(C(=O)CCl)C(C(=O)NCCc6ccccc6)c6cccs6)cc5Cl)nn4)cc3)c2-c2ccc(OC)cc2)cc1` (stereo not shown) [GDAz-2, 4-((2-(3,5-bis(trifluoromethyl)phenyl)-4,5-bis(4-methoxyphenyl)-1H-imidazol-1-yl)methyl)-N-(2-(2-(2-(4-((2-chloro-4-(2-chloro-N-(2-oxo-2-(phenethylamino)-1-(thiophen-2-yl)ethyl)acetamido)phenoxy)methyl)-1H-1,2,3-triazol-1-yl)ethoxy)ethoxy)ethyl)benzamide] the IC50 (HT1080 cells) was 390 ± 110 nM.
In the case of `COc1ccc(-c2nc(-c3cc(C(F)(F)F)cc(C(F)(F)F)c3)n(Cc3ccc(C(=O)NCCOCCOCCOCCOCCn4cc(COc5ccc(N(C(=O)CCl)C(C(=O)NCCc6ccccc6)c6cccs6)cc5Cl)nn4)cc3)c2-c2ccc(OC)cc2)cc1` (stereo not shown) [GDAz-4, 4-((2-(3,5-bis(trifluoromethyl)phenyl)-4,5-bis(4-methoxyphenyl)-1H-imidazol-1-yl)methyl)-N-(14-(4-((2-chloro-4-(2-chloro-N-(2-oxo-2-(phenethylamino)-1-(thiophen-2-yl)ethyl)acetamido)phenoxy)methyl)-1H-1,2,3-triazol-1-yl)-3,6,9,12-tetraoxatetradecyl)benzamide], the IC50 (HT1080 cells) is reported as 390 ± 80 nM.
Molecule `COc1ccc(-c2nc(-c3cc(C(F)(F)F)cc(C(F)(F)F)c3)n(Cc3ccc(C(=O)NCCOCCOCCOCCOCCOCCn4cc(COc5ccc(N(C(=O)CCl)C(C(=O)NCCc6ccccc6)c6cccs6)cc5Cl)nn4)cc3)c2-c2ccc(OC)cc2)cc1` (stereo not shown) [GDAz-5, 4-((2-(3,5-bis(trifluoromethyl)phenyl)-4,5-bis(4-methoxyphenyl)-1H-imidazol-1-yl)methyl)-N-(17-(4-((2-chloro-4-(2-chloro-N-(2-oxo-2-(phenethylamino)-1-(thiophen-2-yl)ethyl)acetamido)phenoxy)methyl)-1H-1,2,3-triazol-1-yl)-3,6,9,12,15-pentaoxaheptadecyl)benzamide] has an IC50 (HT1080 cells) of 210 ± 30 nM.
In the case of `COc1ccc(-c2nc(-c3cc(C(F)(F)F)cc(C(F)(F)F)c3)n(Cc3ccc(C(=O)NCCOCCOCCOCCn4cc(COc5ccc(N(C(=O)CO)C(C(=O)NCCc6ccccc6)c6cccs6)cc5Cl)nn4)cc3)c2-c2ccc(OC)cc2)cc1` (stereo not shown) [GDAz-OH], the “GPX4 degradation by negative control compounds” value (GPX4; HT1080 cells, 24 h, tested concentrations (Figure 4A)) is reported as “none of the compounds effectively triggered GPX4 degradation”.
In the case of `COc1ccc(-c2nc(-c3ccc(OCc4cn(CCOCCOCCOCCNC(=O)CCCC[C@@H]5SC[C@@H]6NC(=O)N[C@@H]65)nn4)cc3)n(Cc3ccc(C(=O)NCCOCCOCCOCCn4cc(COc5ccc(N(C(=O)CCl)C(C(=O)NCCc6ccccc6)c6cccs6)cc5Cl)nn4)cc3)c2-c2ccc(OC)cc2)cc1` (stereo partly shown) [GDAz-biotin], the “GPX4 degradation activity of the probe” value (GPX4; HT1080 cells, 24 h, concentration over 5 µM) is reported as “considerable GPX4 degradation activity”.
For `NS(=O)(=O)OC[C@@H]1C[C@@H](n2ccc3c(N[C@H]4CCc5ccccc54)ncnc32)C[C@@H]1O` [MLN4924, reference compound], the remaining activity at 2.5 µM (GPX4; HT-1080, HT1080 cells, MLN4924 2.5 µM alone, read-out: GPX4 % of control) was 96%.
